Patent EP4722209A1 (Beijing Shenogen Pharma Group, priority 2023, dated 2024)

Assays:
MCF-7 cells = assay: Inhibition of MCF-7 cell proliferation (CellTiter-Glo cell viability); assay type: cell-based; conditions: Homo sapiens, MCF7, 144 h, 6 days treatment, 1 pM to 10 µM
Procedure: ERα-positive human breast cancer cells MCF-7 (ATCC, HTB-22) were cultured with EMEM medium (ATCC, catalog number 30-2003) containing 10% fetal bovine serum (Thermo Fisher, catalog number 10099141) and 10 µg/mL bovine insulin in 25 cm^2 or 75 cm^2 plastic tissue culture flasks in a 37 °C incubator with 5% CO2. The cells were passaged 2 to 3 times per week.
MCF-7 cells were seeded in 96-well plate at 3×10^3 cells/well with 90 µL culture medium per well, and cultured in a 37 °C incubator with 95% air and 5% CO2. After 24 hours, the test compounds were added: the compounds were serially diluted 10-fold in DMSO starting from 10 mM (dissolved in DMSO) to prepare gradient stock solutions. A complete culture medium containing 1% DMSO was prepared for further dilution, temporarily named as the "dilution buffer." Working solutions were prepared by diluting each stock solution with 99 times the volume of dilution buffer, that is, by adding 1 µL of the 10 mM stock solution to 99 µL of the dilution buffer and mixing thoroughly. Finally, 10 µL of the working solution was added to the cell-seeded culture plate. The final concentration of DMSO in the cell culture medium was 0.2%, and the final concentration of the test compounds ranged from 1 pM to 10 µM. The cells were then incubated at 37 °C for 3 days. The culture medium was removed and replaced with 90µL per well of fresh medium. According to the above compound dilution method, the test compounds were added again. On the 6th day, the CellTiter Glo luminescent cell viability assay kit (Promag, item number G7573) was added for cell viability measurement.
Cell viability was measured using the CellTiter-Glo assay kit, and the half-maximal growth inhibitory concentration (GI50) of the compounds was calculated using the Prism software.
The GI50 values (i.e., the concentration of the test compounds required to inhibit 50% of the cell proliferation) were calculated and shown in Table 2. A corresponds to a GI50 value below 10 nM, B corresponds to a GI50 value greater than 10 nM and less than 100 nM, and C corresponds to GI50 values greater than 100 nM. Table 2. The GI50 values of exemplary compounds in MCF-7 cells

ERα = molecular target: T1, ERα (Homo sapiens, UniProt P03372); assay: ER degradation activity in MCF-7 cells (Western blot, grayscale intensity); assay type: cell-based; conditions: 6 hours treatment, 1 nM to 100 nM, concentration required to degrade 50% of the target protein
T1 construct: host or cells: MCF-7
T1 sequence (P03372 1-595): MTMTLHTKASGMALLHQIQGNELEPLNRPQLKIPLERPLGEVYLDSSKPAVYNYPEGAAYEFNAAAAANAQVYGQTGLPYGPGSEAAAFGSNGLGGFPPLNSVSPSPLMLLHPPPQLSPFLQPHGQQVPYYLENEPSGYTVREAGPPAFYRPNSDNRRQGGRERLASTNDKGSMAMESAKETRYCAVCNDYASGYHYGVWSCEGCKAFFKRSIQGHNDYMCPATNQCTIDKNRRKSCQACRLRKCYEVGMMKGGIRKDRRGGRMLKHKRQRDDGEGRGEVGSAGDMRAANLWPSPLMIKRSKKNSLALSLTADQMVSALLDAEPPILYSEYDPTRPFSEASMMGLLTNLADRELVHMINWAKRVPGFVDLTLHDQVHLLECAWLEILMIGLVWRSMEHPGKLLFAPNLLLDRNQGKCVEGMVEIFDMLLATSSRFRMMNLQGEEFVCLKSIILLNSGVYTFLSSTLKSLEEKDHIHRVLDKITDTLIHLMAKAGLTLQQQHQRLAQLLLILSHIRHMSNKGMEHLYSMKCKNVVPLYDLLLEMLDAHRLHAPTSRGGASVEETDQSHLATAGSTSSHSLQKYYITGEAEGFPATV
In short: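 MCF-7 cells were treated 24 h after seeding with test compounds at 1 nM to 100 nM final (0.2% DMSO) for 6 h at 37 °C. ERα in lysates (30 µg protein) was detected by Western blot with ECL; degradation was quantified from band grayscale intensity and DC50 derived.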

[1] = system: MCF-7/ERα Y537S xenografts; assay: Anti-tumor activity in MCF-7 xenografts expressing ERα Y537S mutant; assay type: in vivo, female Balb/c nude mice; conditions: 1, 3 and 10 mpk, daily oral gavage, 17 days
Excerpt: (§1) MCF-7/ERα Y537S tumors that had been passaged in mice for more than three but less than ten generations were transplanted as approximately 3×3×3 mm tumor blocks into the subcutaneous right flank of female Balb/c nude mice. When the tumor volume in the tumor-bearing mice reached around 200 mm^3, the mice were randomly divided into four groups according to tumor volume and body weight: vehicle group, 1 mpk group, 3 mpk group, and 10 mpk group, 7 mice in each group. The day of grouping was designated as D0, and daily oral gavage administration began on this day and last for a total of 17 days. The 17th day after administration was designated as Day 17.
(§2) The tumor volume was measured twice weekly using a caliper, and the body weight of the mice was measured using an analytical balance. The length and width of the tumor were measured, and the formula for tumor volume calculation is: Tumor Volume (TV) = 0.5 × length × width× width. The T/C value was calculated based on the tumor volume, where T is the mean relative tumor volume (RTV) of the treated groups, and C is the mean RTV of the vehicle group. The RTV is the ratio of the tumor volume after administration to the tumor volume before administration. The tumor growth inhibition rate (TGITV) (%) = (1 - T/C) × 100%.

[2] = Body weight of MCF-7/ERα Y537S xenograft mice; assay type: in vivo, female Balb/c nude mice; conditions: 1, 3 and 10 mpk, daily oral gavage, 17 days
Excerpt: as §1, §2

Row | Structure (SMILES) | GI50 (MCF-7 cells) [µM] | DC50 (ERα) [µM] | tumor growth inhibition [1] | effect on body weight [2]
1 | CC1(C)CC(=C(c2ccc(N3CCC(CN4CCN(c5ccc6c(c5)CN(C5CCC(=O)NC5=O)C6=O)CC4)CC3)nc2)c2ccc3[nH]nc(F)c3c2)CC(C)(C)O1 (racemic) [Compound 34] | < 0.01 | < 0.01 |  | 
2 | CC1(C)CC(=C(c2ccc(N3CCC4(CC3)CC(N3CCN(c5ccc6c(c5)CN(C5CCC(=O)NC5=O)C6=O)CC3)C4)nc2)c2ccc3[nH]nc(F)c3c2)CC(C)(C)O1 (racemic) [Compound 35] | < 0.01 | < 0.01 |  | 
3 | CC1(C)CC(=C(c2ccc(N3CCN(C4CN(c5ccc6c(c5)C(=O)N(C5CCC(=O)NC5=O)C6=O)C4)CC3)cc2)c2ccc3[nH]nc(F)c3c2)CC(C)(C)O1 (stereo not shown) [Compound 2] | 0.01 to 0.1 | < 0.01 |  | 
4 | CC1(C)CC(=C(c2ccc(N3CCC(CN4CCN(c5ccc6c(c5)C(=O)N(C5CCC(=O)NC5=O)C6=O)CC4)CC3)cc2)c2ccc3[nH]ncc3c2)CC(C)(C)O1 (stereo not shown) [Compound 5] | < 0.01 | < 0.01 |  | 
5 | CC1(C)CC(=C(c2ccc(N3CCC(CN4CCN(c5ccc6c(c5)C(=O)N(C5CCC(=O)NC5=O)C6=O)CC4)CC3)cc2)c2ccc3[nH]nc(F)c3c2)CC(C)(C)O1 (stereo not shown) [Compound 6] | < 0.01 | < 0.01 |  | 
6 | CC1(C)CC(=C(c2ccc(N3CCN(C4CCN(c5ccc6c(c5)C(=O)N(C5CCC(=O)NC5=O)C6=O)CC4)CC3)cc2)c2ccc3[nH]nc(F)c3c2)CC(C)(C)O1 (stereo not shown) [Compound 22] | < 0.01 | < 0.01 |  | 
7 | CC1(C)CC(=C(c2ccc(N3CCC(N4CCN(c5ccc6c(c5)C(=O)N(C5CCC(=O)NC5=O)C6=O)CC4)CC3)cc2)c2ccc3[nH]nc(F)c3c2)CC(C)(C)O1 (stereo not shown) [Compound 31] | < 0.01 | < 0.01 |  | 
8 | CC1(C)CC(=C(c2ccc(N3CCC(N4CCN(c5ccc6c(c5)CN(C5CCC(=O)NC5=O)C6=O)CC4)CC3)cc2)c2ccc3[nH]nc(F)c3c2)CC(C)(C)O1 (stereo not shown) [Compound 37] | < 0.01 | 0.01 to 0.1 |  | 
9 | CC1(C)CC(=C(c2ccc(N3CCC(CNC4CCN(c5ccc6c(c5)CN(C5CCC(=O)NC5=O)C6=O)CC4)CC3)nc2)c2ccc3[nH]nc(F)c3c2)CC(C)(C)O1 (stereo not shown) [Compound 44] | < 0.01 | < 0.01 |  | 
10 | CC1(C)CC(=C(c2ccc(N3CC4(CCN(C5CCN(c6ccc7c(c6)CN(C6CCC(=O)NC6=O)C7=O)CC5)CC4)C3)nc2)c2ccc3[nH]nc(F)c3c2)CC(C)(C)O1 (stereo not shown) [Compound 46] | < 0.01 | < 0.01 |  | 
11 | CC1(C)CC(=C(c2ccc(N3CCC4(CC3)CN(C3CCN(c5ccc6c(c5)CN(C5CCC(=O)NC5=O)C6=O)CC3)C4)nc2)c2ccc3[nH]nc(F)c3c2)CC(C)(C)O1 (stereo not shown) [Compound 47] | < 0.01 | < 0.01 |  | 
12 | CC1(C)CC(=C(c2ccc(N3CCC(F)(CNC4CCN(c5ccc6c(c5)CN(C5CCC(=O)NC5=O)C6=O)CC4)CC3)nc2)c2ccc3[nH]nc(F)c3c2)CC(C)(C)O1 (stereo not shown) [Compound 48] | < 0.01 | < 0.01 |  | 
13 | CC1(C)CC(=C(c2ccc(N3CCC(CN4CCN(c5ccc(N6CCC(=O)NC6=O)cc5)CC4)CC3)nc2)c2ccc3[nH]nc(F)c3c2)CC(C)(C)O1 [Compound 77] | > 0.1 | > 0.1 |  | 
14 | CC1(C)CC(=C(c2ccc(N3CCC(CN4CCN(c5ccc(NC6CCC(=O)NC6=O)cc5)CC4)CC3)nc2)c2ccc3[nH]nc(F)c3c2)CC(C)(C)O1 (stereo not shown) [Compound 88] | > 0.1 | > 0.1 |  | 
15 | CC1(C)CC(=C(c2ccc(N3CCC(CN4CCN(c5ccc(NC6CCC(=O)NC6=O)c(F)c5)CC4)CC3)nc2)c2ccc3[nH]nc(F)c3c2)CC(C)(C)O1 (stereo not shown) [Compound 89] | > 0.1 | > 0.1 |  | 
16 | CC1(C)CC(=C(c2ccc(N3CCC(CN4CCN(c5ccc6c(c5)CN([C@H]5CCC(=O)NC5=O)C6=O)CC4)CC3)nc2)c2ccc3[nH]nc(F)c3c2)CC(C)(C)O1 [Compound 110] | < 0.01 | < 0.01 | dose-dependent tumor growth inhibition | no effect
17 | CC1(C)CC(=C(c2ccc(N3CCC(CN4CCN(c5ccc6c(c5)CN([C@@H]5CCC(=O)NC5=O)C6=O)CC4)CC3)nc2)c2ccc3[nH]nc(F)c3c2)CC(C)(C)O1 [Compound 119] | < 0.01 | < 0.01 |  | 
18 | CC1(C)CC(=C(c2ccc(N3CCC4(CC3)CC(N3CCN(c5ccc6c(c5)CN([C@H]5CCC(=O)NC5=O)C6=O)CC3)C4)nc2)c2ccc3[nH]nc(F)c3c2)CC(C)(C)O1 [Compound 120] | < 0.01 | < 0.01 | dose-dependent tumor growth inhibition | no effect
19 | CC1(C)CC(=C(c2ccc(N3CCC4(CC3)CC(N3CCN(c5ccc6c(c5)CN([C@@H]5CCC(=O)NC5=O)C6=O)CC3)C4)nc2)c2ccc3[nH]nc(F)c3c2)CC(C)(C)O1 [Compound 121] | < 0.01 | < 0.01 |  | 
20 | CC1(C)CC(=C(c2ccc(N3CCC(CN4CCN(c5ccc6c(c5)CN([C@H]5CCC(=O)NC5=O)C6=O)CC4)CC3)nc2)c2ccc3[nH]ncc3c2)CC(C)(C)O1 [Compound 137] |  | < 0.01 |  | 
21 | CC1(C)CC(=C(c2ccc(N3CC4(CCN(C5CCN(c6ccc7c(c6)CN([C@@H]6CCC(=O)NC6=O)C7=O)CC5)CC4)C3)nc2)c2ccc3[nH]nc(F)c3c2)CC(C)(C)O1 [Compound 138] |  | < 0.01 |  | 
22 | CC1(C)CC(=C(c2ccc(N3CC4(CCN(C5CCN(c6ccc7c(c6)CN([C@H]6CCC(=O)NC6=O)C7=O)CC5)CC4)C3)nc2)c2ccc3[nH]nc(F)c3c2)CC(C)(C)O1 [Compound 139] |  | 0.01 to 0.1 |  | 
23 | CC1(C)CC(=C(c2ccc(N3CCC4(CC3)CN(C3CCN(c5ccc6c(c5)CN([C@@H]5CCC(=O)NC5=O)C6=O)CC3)C4)nc2)c2ccc3[nH]nc(F)c3c2)CC(C)(C)O1 [Compound 140] |  | < 0.01 |  | 
24 | CC1(C)CC(=C(c2ccc(N3CCC4(CC3)CN(C3CCN(c5ccc6c(c5)CN([C@H]5CCC(=O)NC5=O)C6=O)CC3)C4)nc2)c2ccc3[nH]nc(F)c3c2)CC(C)(C)O1 [Compound 141] |  | < 0.01 |  | 
25 | CC1(C)CC(=C(c2ccc(N3CCC(F)(CNC4CCN(c5ccc6c(c5)CN([C@@H]5CCC(=O)NC5=O)C6=O)CC4)CC3)nc2)c2ccc3[nH]nc(F)c3c2)CC(C)(C)O1 [Compound 142] |  | < 0.01 |  | 
26 | CC1(C)CC(=C(c2ccc(N3CCC(F)(CNC4CCN(c5ccc6c(c5)CN([C@H]5CCC(=O)NC5=O)C6=O)CC4)CC3)nc2)c2ccc3[nH]nc(F)c3c2)CC(C)(C)O1 [Compound 143] |  | 0.01 to 0.1 |  | 
